In patent US20230339981A1, “KRAS G12D MODULATING COMPOUNDS” (priority 2022, published 2023):

Legend:
[1] = tested on: GP2D (KRAS G12D) cells; experiment: 2D cell viability assay (CellTiter-Glo); type: cell-based; settings: GP2d, 96 h, 4 days
Description: Example B. 2D Cell Viability Assay
Compounds were tested in a 384-well format for their ability to inhibit the viability of GP2D (KRAS G12D) cells in 2D assays. Compounds were serially diluted (1:3) in DMSO. The LabCyte ECHO Acoustic dispenser system was used to pre-spot assay plates with 200 nL of test molecule per well. 1000 cells/well (40 μL volume per well) in RPMI medium with 10% FBS, and Penicillin-Streptomycin-Glutamine were plated in pre-spotted 384-well plates (Greiner, Catalog #781076) on the BioTEK EL406 liquid dispenser with a 5 μL dispensing cassette (BioTek 7170011). The plates were incubated at 37° C., 5% CO2 for 4 days before addition of CellTiter-Glo (CTG) reagent and measurement of luminescence signal. EC50 values were defined as the compound concentration that causes a 50% decrease in luminescence signal and were calculated using a sigmoidal dose-response model to generate curve fits.

[2] = target: GDP-loaded KRAS G12D (Homo sapiens (Human), UniProt P01116, G12D); experiment: KRAS G12D (GDP) biochemical assay (TR-FRET probe displacement); type: binding; settings: 2 hours
Sequence of GDP-loaded KRAS G12D (P01116-2 other isoform, or with tags, fused parts or gaps G12D): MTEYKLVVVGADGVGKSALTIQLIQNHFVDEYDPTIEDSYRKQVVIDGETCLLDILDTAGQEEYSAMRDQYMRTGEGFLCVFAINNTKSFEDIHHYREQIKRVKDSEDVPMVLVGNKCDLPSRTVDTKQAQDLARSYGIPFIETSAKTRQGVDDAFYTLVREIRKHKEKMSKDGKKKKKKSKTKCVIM
Description: Example A. KRAS G12D (GDP) Biochemical Assay
Compounds were tested for binding to GDP-loaded KRAS G12D in a 384-well assay format using a TR-FRET probe displacement assay in buffer consisting of 50 mM Hepes (pH 7.4), 150 mM NaCl, 5 mM MgCl2 and 0.005% Tween-20. […] Compounds were serially diluted (1:3) in DMSO. The LabCyte ECHO Acoustic dispenser system was used to pre-spot the assay plates (384-well Non-Binding Surface plates, Corning, Catalog #3824) with 50 nL of compound. The compounds were pre-incubated with 5 μL of 2× final enzyme concentration for 30 minutes before adding 5 μL of 2× final concentration of Eu-streptavidin and TR-FRET probe (10 μL final reaction volume). The plates were incubated at room temperature for 2 hours before measuring TR-FRET ratio on the Envision plate reader. IC50 values were defined as the compound concentration that causes a 50% decrease in TR-FRET ratio and were calculated using a sigmoidal dose-response model to generate curve fits.

C#Cc1c(F)ccc2cc(O)cc(-c3nc4c5c(nc(OCC6(CN7CC[C@H](OC(F)(F)F)C7)CC6)nc5c3F)N3C[C@H]5CC[C@H](N5)[C@H]3CCC4)c12 [Example 162]
EC50 [1]: 0.5 nM | IC50 [2]: 0.4 nM

C#Cc1c(F)ccc2cccc(-c3nc4c5c(nc(OC[C@@]67CCCN6C[C@H](F)C7)nc5c3F)N3C[C@H]5CC[C@H](N5)[C@H]3CCCC4)c12 [Example 188, (7aR,8S,11R)-2-(8-ethynyl-7-fluoronaphthalen-1-yl)-1-fluoro-14-(((2R,7aS)-2-fluorotetrahydro-1H-pyrrolizin-7a(5H)-yl)methoxy)-4,5,6,7,7a,8,9,10,11,12-decahydro-3,12a,13,15,16-pentaaza-8,11-methanocyclohepta[4,5]cyclonona[1,2,3-de]naphthalene]
EC50 [1]: 100 nM | IC50 [2]: 0.2 nM

Fc1ccc2cccc(-c3nc4c5c(nc(OCC6(CN7CCC(OC(F)(F)F)CC7)CC6)nc5c3F)N3C[C@H]5CC[C@H](N5)[C@H]3CC4)c2c1OC(F)(F)F [Example 120, (5aR,6S,9R)-1-fluoro-2-(7-fluoro-8-(trifluoromethoxy)naphthalen-1-yl)-12-((1-((4-(trifluoromethoxy)piperidin-1-yl)methyl)cyclopropyl)methoxy)-4,5,5a,6,7,8,9,10-octahydro-3,10a,11,13,14-pentaaza-6,9-methanonaphtho[1,8-ab]heptalene]
EC50 [1]: 1000 nM | IC50 [2]: 337 nM

C#Cc1c(F)ccc2cccc(-c3nc4c5c(nc(OC[C@@]67CCCN6[C@H](COc6cccc(S(F)(F)(F)(F)F)c6)CC7)nc5c3F)N3C[C@H]5CC[C@H](N5)[C@H]3CC4)c12 [Example 108, (5aR,6S,9R)-2-(8-ethynyl-7-fluoronaphthalen-1-yl)-1-fluoro-12-(((3S,7aS)-3-((3-(pentafluoro-λ^6-sulfaneyl)phenoxy)methyl)tetrahydro-1H-pyrrolizin-7a(5H)-yl)methoxy)-4,5,5a,6,7,8,9,10-octahydro-3,10a,11,13,14-pentaaza-6,9-methanonaphtho[1,8-ab]heptalene]
EC50 [1]: 450 nM | IC50 [2]: 1.5 nM

C#Cc1c(F)ccc2cccc(-c3nc4c5c(nc(OC[C@@]67CCCN6[C@H](COc6nccnc6C(F)F)CC7)nc5c3F)N3C[C@H]5CC[C@H](N5)[C@H]3CCC4)c12 [Example 207, (6aR,7S,10R)-13-(((3S,7aS)-3-(((3-(difluoromethyl)pyrazin-2-yl)oxy)methyl)tetrahydro-1H-pyrrolizin-7a(5H)-yl)methoxy)-2-(8-ethynyl-7-fluoronaphthalen-1-yl)-1-fluoro-5,6,6a,7,8,9,10,11-octahydro-4H-3,11a,12,14,15-pentaaza-7,10-methanocyclohepta[4,5]cycloocta[1,2,3-de]naphthalene]
EC50 [1]: 1 nM | IC50 [2]: 0.06 nM

C#Cc1c(F)ccc2cccc(-c3nc4c5c(nc(OC[C@@]67CCCN6C[C@H](F)C7)nc5c3F)N3C[C@H]5CC[C@H](N5)[C@@H]3[C@H](C)CC4)c12 [Example 159, (6R,6aS,7S,10R)-2-(8-ethynyl-7-fluoronaphthalen-1-yl)-1-fluoro-13-(((2R,7aS)-2-fluorotetrahydro-1H-pyrrolizin-7a(5H)-yl)methoxy)-6-methyl-5,6,6a,7,8,9,10,11-octahydro-4H-3,11a,12,14,15-pentaaza-7,10-methanocyclohepta[4,5]cycloocta[1,2,3-de]naphthalene]
EC50 [1]: 100 nM | IC50 [2]: 100 nM

Oc1cc(-c2nc3c4c(nc(OC[C@@]56CCCN5C[C@H](F)C6)nc4c2F)N2C[C@H]4CC[C@H](N4)[C@H]2CO3)c2cc(F)ccc2c1 [Example 8, 6-fluoro-4-((5aS,6S,9R)-1-fluoro-12-(((2R,7aS)-2-fluorotetrahydro-1H-pyrrolizin-7a(5H)-yl)methoxy)-5a,6,7,8,9,10-hexahydro-5H-4-oxa-3,10a,11,13,14-pentaaza-6,9-methanonaphtho[1,8-ab]heptalen-2-yl)naphthalen-2-ol]
EC50 [1]: 54 nM | IC50 [2]: 2 nM

C#Cc1c(F)ccc2cccc(-c3nc4c5c(nc(OC[C@@]67CCCN6C[C@@H](OC(F)(F)F)C7)nc5c3F)N3C[C@H]5CC[C@H](N5)[C@H]3CC4)c12 (stereo in doubt) [Example 140, (5aR,6S,9R)-2-(8-ethynyl-7-fluoronaphthalen-1-yl)-1-fluoro-12-((cis-2-(trifluoromethoxy)tetrahydro-1H-pyrrolizin-7a(5H)-yl)methoxy)-4,5,5a,6,7,8,9,10-octahydro-3,10a,11,13,14-pentaaza-6,9-methanonaphtho[1,8-ab]heptalene]
EC50 [1]: 75.9 nM

C#Cc1c(F)ccc2cc(O)cc(-c3nc4c5c(nc(OC[C@@]67CCCN6[C@H](COC(C(F)(F)F)(C(F)(F)F)C(F)(F)F)CC7)nc5c3F)N3C[C@H]5CC[C@H](N5)[C@H]3CC4)c12 [Example 63, 5-ethynyl-6-fluoro-4-((5aR,6S,9R)-1-fluoro-12-(((3S,7aS)-3-(((1,1,1,3,3,3-hexafluoro-2-(trifluoromethyl)propan-2-yl)oxy)methyl)tetrahydro-1H-pyrrolizin-7a(5H)-yl)methoxy)-4,5,5a,6,7,8,9,10-octahydro-3,10a,11,13,14-pentaaza-6,9-methanonaphtho[1,8-ab]heptalen-2-yl)naphthalen-2-ol]
EC50 [1]: 0.2 nM | IC50 [2]: 0.2 nM

C#Cc1c(F)ccc2cc(O)cc(-c3nc4c5c(nc(OC[C@@]67CCCN6C[C@H](F)C7)nc5c3F)N3C[C@H]5CC[C@H](N5)[C@@H]3CC4)c12 [Example 133, 5-ethynyl-6-fluoro-4-((5aS,6S,9R)-1-fluoro-12-(((2R,7aS)-2-fluorotetrahydro-1H-pyrrolizin-7a(5H)-yl)methoxy)-4,5,5a,6,7,8,9,10-octahydro-3,10a,11,13,14-pentaaza-6,9-methanonaphtho[1,8-ab]heptalen-2-yl)naphthalen-2-ol]
EC50 [1]: 1.1 nM

C#Cc1c(F)ccc2cc(O)cc(-c3nc4c5c(nc(OC[C@@]67CCCN6C[C@H](F)C7)nc5c3F)N3C[C@H]5CC[C@H](N5)[C@H]3[C@@H](C)O4)c12 [Example 61, 5-ethynyl-6-fluoro-4-((5R,5aS,6S,9R)-1-fluoro-12-(((2R,7aS)-2-fluorotetrahydro-1H-pyrrolizin-7a(5H)-yl)methoxy)-5-methyl-5a,6,7,8,9,10-hexahydro-5H-4-oxa-3,10a,11,13,14-pentaaza-6,9-methanonaphtho[1,8-ab]heptalen-2-yl)naphthalen-2-ol]
EC50 [1]: 520 nM | IC50 [2]: 26 nM

Fc1ccc(-c2nc3c4c(nc(OC[C@@]56CCCN5C[C@H](F)C6)nc4c2F)N2C[C@H]4CC[C@H](N4)[C@H]2CO3)c2ccccc12 [Example 72, (5aS,6S,9R)-1-fluoro-2-(4-fluoronaphthalen-1-yl)-12-(((2R,7aS)-2-fluorotetrahydro-1H-pyrrolizin-7a(5H)-yl)methoxy)-5a,6,7,8,9,10-hexahydro-5H-4-oxa-3,10a,11,13,14-pentaaza-6,9-methanonaphtho[1,8-ab]heptalene]
EC50 [1]: > 1000 nM | IC50 [2]: 510 nM

C#Cc1c(F)ccc2cc(O)cc(-c3nc4c5c(nc(OCC6(CN7CCC(F)CC7)CC6)nc5c3F)N3C[C@H]5CC[C@H](N5)[C@H]3CO4)c12 [Example 32, 5-ethynyl-6-fluoro-4-((5aS,6S,9R)-1-fluoro-12-((1-((4-fluoropiperidin-1-yl)methyl)cyclopropyl)methoxy)-5a,6,7,8,9,10-hexahydro-5H-4-oxa-3,10a,11,13,14-pentaaza-6,9-methanonaphtho[1,8-ab]heptalen-2-yl)naphthalen-2-ol]
EC50 [1]: 2 nM | IC50 [2]: 0.2 nM

Fc1ccc2cccc(-c3nc4c5c(nc(OC[C@@]67CCCN6C[C@H](F)C7)nc5c3F)N3C[C@H]5CC[C@H](N5)[C@H]3CC4)c2c1OC(F)(F)F [Example 65, (5aR,6S,9R)-1-fluoro-2-(7-fluoro-8-(trifluoromethoxy)naphthalen-1-yl)-12-(((2R,7aS)-2-fluorotetrahydro-1H-pyrrolizin-7a(5H)-yl)methoxy)-4,5,5a,6,7,8,9,10-octahydro-3,10a,11,13,14-pentaaza-6,9-methanonaphtho[1,8-ab]heptalene]
EC50 [1]: 450 nM

C#Cc1c(F)ccc2cc(O)cc(-c3nc4c5c(nc(OC[Si](C)(C)CN6CCOCC6)nc5c3F)N3C[C@H]5CC[C@H](N5)[C@H]3CO4)c12 [Example 29, 4-((5aS,6S,9R)-12-((dimethyl(morpholinomethyl)silyl)methoxy)-1-fluoro-5a,6,7,8,9,10-hexahydro-5H-4-oxa-3,10a,11,13,14-pentaaza-6,9-methanonaphtho[1,8-ab]heptalen-2-yl)-5-ethynyl-6-fluoronaphthalen-2-ol]
EC50 [1]: > 1000 nM
